Measured values published in patent publication US20200262787A1, “OPTICAL COMPONENT FORMING COMPOSITION AND CURED PRODUCT THEREOF” (Mitsubishi Gas Chemical Company, Inc., priority 2016, published 2020).

assay: Organic solvent solubility test of compound; type: physicochemical; settings: compound in propylene glycol monomethyl ether acetate, 23° C., ultrasonic waves 30 minutes, visual
Protocol: The solubility of the compound in propylene glycol monomethyl ether acetate was measured as the solubility of the compound in an organic solvent.
A: 5.0% by mass Amount of dissolution
C: Amount of dissolution <3.0% by mass

Row | Compound | Solubility in organic solvent
1 | Oc1ccc([Te](Cl)(Cl)c2ccc(O)cc2)cc1 [BHPT, bis(4-hydroxyphenyl)tellurium dichloride] | A (5.0% by mass Amount of dissolution)
2 | CC1(OC(=O)COc2ccc([Te](Cl)(Cl)c3ccc(OCC(=O)OC4(C)C5CC6CC(C5)CC4C6)cc3)cc2)C2CC3CC(C2)CC1C3 (centres unmarked) [BHPT-ADBAC, bis(4-(2-methyl-2-adamantyloxycarbonylmethoxy)phenyl)tellurium dichloride] | A (5.0% by mass Amount of dissolution)
3 | CC(C)(C)OC(=O)Oc1ccc([Te](Cl)(Cl)c2ccc(OC(=O)OC(C)(C)C)cc2)cc1 [BHPT-BOC, bis(tert-butoxycarboxyphenyl)tellurium dichloride] | A (5.0% by mass Amount of dissolution)
4 | CCOC(C)Oc1ccc([Te](Cl)(Cl)c2ccc(OC(C)OCC)cc2)cc1 (centres unmarked) [BHPT-EE, bis(ethoxyethylphenyl)tellurium dichloride] | A (5.0% by mass Amount of dissolution)
5 | Oc1ccc([Te](Cl)(Cl)c2ccc(O)cc2O)cc1 [CCHT, (2,4-dihydroxyphenyl) (4-hydroxyphenyl)tellurium dichloride] | A (5.0% by mass Amount of dissolution)
6 | CC1(OC(=O)COc2ccc([Te](Cl)(Cl)c3ccc(OCC(=O)OC4(C)C5CC6CC(C5)CC4C6)cc3OCC(=O)OC3(C)C4CC5CC(C4)CC3C5)cc2)C2CC3CC(C2)CC1C3 (centres unmarked) [CCHT-ADBAC] | A (5.0% by mass Amount of dissolution)
7 | Oc1ccc([Te](Cl)(Cl)c2ccc(O)c(-c3ccccc3)c2)cc1-c1ccccc1 [Ph-BHPT, bis(3-phenyl-4-hydroxyphenyl)tellurium dichloride] | A (5.0% by mass Amount of dissolution)
8 | CC1(OC(=O)COc2ccc([Te](Cl)(Cl)c3ccc(OCC(=O)OC4(C)C5CC6CC(C5)CC4C6)c(-c4ccccc4)c3)cc2-c2ccccc2)C2CC3CC(C2)CC1C3 (centres unmarked) [Ph-BHPT-ADBAC] | A (5.0% by mass Amount of dissolution)
9 | Oc1ccc([Te]c2ccc(O)c(-c3ccccc3)c2)cc1-c1ccccc1 [Ph-TDP, bis(3-phenyl-4-hydroxyphenyl)tellurium] | A (5.0% by mass Amount of dissolution)
10 | CC1(OC(=O)COc2ccc([Te]c3ccc(OCC(=O)OC4(C)C5CC6CC(C5)CC4C6)c(-c4ccccc4)c3)cc2-c2ccccc2)C2CC3CC(C2)CC1C3 (centres unmarked) [Ph-TDP-ADBAC] | A (5.0% by mass Amount of dissolution)
11 | CC(C)(C)OC(=O)COc1ccc([Te]c2ccc(OCC(=O)OC(C)(C)C)c(-c3ccccc3)c2)cc1-c1ccccc1 [Ph-TDP-BOC] | A (5.0% by mass Amount of dissolution)
12 | CCOC(C)Oc1ccc([Te](Cl)(Cl)c2ccc(OC(C)OCC)c(-c3ccccc3)c2)cc1-c1ccccc1 (centres unmarked) [Ph-TDP-EE] | A (5.0% by mass Amount of dissolution)
13 | Oc1ccc([Te]c2ccc(O)cc2)cc1 [TDP, 4,4′-telluriumdiphenol] | A (5.0% by mass Amount of dissolution)
14 | CC1(OC(=O)COc2ccc([Te]c3ccc(OCC(=O)OC4(C)C5CC6CC(C5)CC4C6)cc3)cc2)C2CC3CC(C2)CC1C3 (centres unmarked) [TDP-ADBAC] | A (5.0% by mass Amount of dissolution)
